{"source": "patent US20180237713A1", "about": "“Ionic Liquid, Lubricant, and Magnetic Recording Medium” (priority 2015, published 2018)", "key": {"[1]": {"test": "Solubility test of ionic liquid in fluorine-based solvent VERTREL XF", "conditions": "for Solubility to fluorine-based solvent: VERTREL XF [CF3(CHF)2CF2CF3], 25° C., ultrasonic 5 minutes, left 1 day, visual; for Dissolved or not in fluorine-based solvent: VERTREL XF", "method": "A solubility test was performed on the ionic liquid synthesized each of Examples and each of Comparative Examples using VERTREL XF [CF3(CHF)2CF2CF3] available from Du Pont-Mitsui Fluorochemicals Company, Ltd. as a fluorine-based solvent.\nThe ionic liquid was added to the predetermined mass of VERTREL XF.\nSpecifically, 0.5 parts by mass or 0.1 parts by mass of each ionic liquid was added to 100 parts by mass of VERTREL XF (25° C.).\nNote that, a case where the mixture was visually observed to be transparent, the ionic liquid was judged as being dissolved. A case where the mixture was not transparent or insoluble matter was observed, the ionic liquid was judged as not being dissolved (insoluble).\nThe ionic liquid was dissolved when 0.5 parts by mass of the ionic liquid was added.\nThe ionic liquid was not dissolved when 0.5 parts by mass of the ionic liquid was added, but the ionic liquid was dissolved when 0.1 parts by mass of the ionic liquid was added.\nThe ionic liquid was not dissolved both when 0.5 parts by mass of the ionic liquid was added and when 0.1 parts by mass of the ionic liquid was added."}, "[2]": {"test": "Thermal stability measurement (TG/DTA weight reduction temperature)", "conditions": "for Weight reduction temperature 5% / Weight reduction temperature 10% / Weight reduction temperature 20%: TG/DTA, air 200 mL/min, 10° C./min, 30° C. to 600° C."}}}
{"molecule": "CCCCCCCCCCCCCCCCCCn1cc[n+](CCCCCCCCC[n+]2ccn(CCCCCCCCCCCCCCCCCC)c2)c1.O=S(=O)([N-]S(=O)(=O)C(F)(F)C(F)(F)C(F)(F)C(F)(F)F)C(F)(F)C(F)(F)C(F)(F)C(F)(F)F.O=S(=O)([N-]S(=O)(=O)C(F)(F)C(F)(F)C(F)(F)C(F)(F)F)C(F)(F)C(F)(F)C(F)(F)C(F)(F)F", "note": "[Comp. Ex. 10A, 1,9-bis[bis(nonafluorobutanesulfonyl)imide-1-octadecylimidazolium]nonane, reference compound]", "values": [{"measurement": "Solubility to fluorine-based solvent", "setting": "[1]", "result": "less than 0.1% by mass"}, {"measurement": "Weight reduction temperature 5%", "setting": "[2]", "result": 355.1, "unit": "°C"}, {"measurement": "Weight reduction temperature 10%", "setting": "[2]", "result": 381.0, "unit": "°C"}, {"measurement": "Weight reduction temperature 20%", "setting": "[2]", "result": 400.9, "unit": "°C"}]}
{"molecule": "C[n+]1ccn(CCC(F)(F)C(F)(F)C(F)(F)C(F)(F)C(F)(F)C(F)(F)C(F)(F)C(F)(F)F)c1.O=S(=O)([N-]S(=O)(=O)C(F)(F)C(F)(F)C(F)(F)C(F)(F)F)C(F)(F)C(F)(F)C(F)(F)C(F)(F)F", "note": "[Ex. 9A, bis(nonafluorobutanesulfonyl)imide-1-1′H,1′H,2′H,2′H-heptadecafluorodecyl-3-methylimidazolium]", "values": [{"measurement": "Solubility to fluorine-based solvent", "setting": "[1]", "result": "0.5% by mass or greater"}, {"measurement": "Solubility to fluorine-based solvent", "setting": "[1]; listed as Example 9A", "result": "≥ 0.5", "unit": "% by mass"}, {"measurement": "Weight reduction temperature 5%", "setting": "[2]", "result": 350.3, "unit": "°C"}, {"measurement": "Weight reduction temperature 10%", "setting": "[2]", "result": 365.5, "unit": "°C"}, {"measurement": "Weight reduction temperature 20%", "setting": "[2]", "result": 381.3, "unit": "°C"}]}
{"molecule": "bis(nonafluorobutanesulfonyl)imide-6-octadecyl-1,8-diazabicyclo[5.4.0]-7-undecene [Ex. 1A]", "values": [{"measurement": "Solubility to fluorine-based solvent", "setting": "[1]", "result": "0.5% by mass or greater"}, {"measurement": "Solubility to fluorine-based solvent", "setting": "[1]; listed as Example 1A", "result": "≥ 0.5", "unit": "% by mass"}, {"measurement": "Weight reduction temperature 5%", "setting": "[2]", "result": 352.9, "unit": "°C"}, {"measurement": "Weight reduction temperature 10%", "setting": "[2]", "result": 378.2, "unit": "°C"}, {"measurement": "Weight reduction temperature 20%", "setting": "[2]", "result": 396.7, "unit": "°C"}]}
{"molecule": "CCCCCCCCCCCCCCCCCCN1CCCN2CCCN=C12.O=S1(=O)NS(=O)(=O)C(F)(F)C(F)(F)C1(F)F", "note": "[Comp. Ex. 4A, hexafluorocyclopropane-1,3-bis(sulfonyl)imide-7-octadecyl-1,5,7-triazabicyclo[4.4.0]-5-decenium, reference compound]", "values": [{"measurement": "Dissolved or not in fluorine-based solvent", "setting": "[1]", "result": "not dissolved"}, {"measurement": "Solubility to fluorine-based solvent", "setting": "[1]", "result": "less than 0.1% by mass"}, {"measurement": "Weight reduction temperature 5%", "setting": "[2]", "result": 288.4, "unit": "°C"}, {"measurement": "Weight reduction temperature 10%", "setting": "[2]", "result": 376.2, "unit": "°C"}, {"measurement": "Weight reduction temperature 20%", "setting": "[2]", "result": 412.1, "unit": "°C"}]}
{"molecule": "CCCCCCCCCCCCCCCCCC[N+]1=C2CCCCCN2CCC1.O=S(=O)([N-]S(=O)(=O)C(F)(F)C(F)(F)C(F)(F)C(F)(F)F)C(F)(F)C(F)(F)C(F)(F)C(F)(F)F", "note": "[Ex. 2A, bis(nonafluorobutanesulfonyl)imide-8-octadecyl-1,8-diazabicyclo[5.4.0]-7-undecenium]", "values": [{"measurement": "Solubility to fluorine-based solvent", "setting": "[1]", "result": "0.5% by mass or greater"}, {"measurement": "Solubility to fluorine-based solvent", "setting": "[1]; listed as Example 2A", "result": "≥ 0.5", "unit": "% by mass"}, {"measurement": "Weight reduction temperature 5%", "setting": "[2]", "result": 341.1, "unit": "°C"}, {"measurement": "Weight reduction temperature 10%", "setting": "[2]", "result": 372.9, "unit": "°C"}, {"measurement": "Weight reduction temperature 20%", "setting": "[2]", "result": 396.3, "unit": "°C"}, {"measurement": "Thermal stability improved compared with perfluoropolyether Z-DOL or Z-TETRAOL by", "setting": "[2]; difference to Z-DOL or Z-TETRAOL", "result": "≥ 100", "unit": "°C"}]}
{"molecule": "CCCCCCCCCCCCCCCCCCN1CCCC1.O=S1(=O)NS(=O)(=O)C(F)(F)C(F)(F)C1(F)F", "note": "[Comp. Ex. 6A, hexafluorocyclopropane-1,3-bis(sulfonyl)imide-N-octadecylpyrrolidinium, reference compound]", "values": [{"measurement": "Solubility to fluorine-based solvent", "setting": "[1]", "result": "less than 0.1% by mass"}, {"measurement": "Weight reduction temperature 5%", "setting": "[2]", "result": 336.4, "unit": "°C"}, {"measurement": "Weight reduction temperature 10%", "setting": "[2]", "result": 358.4, "unit": "°C"}, {"measurement": "Weight reduction temperature 20%", "setting": "[2]", "result": 379.4, "unit": "°C"}]}
{"molecule": "CCCCCCCCCCCCCCCCCC[N+]1(CCCC)CCCC1.O=S(=O)([N-]S(=O)(=O)C(F)(F)C(F)(F)C(F)(F)C(F)(F)F)C(F)(F)C(F)(F)C(F)(F)C(F)(F)F", "note": "[Ex. 4A, bis(nonafluorobutanesulfonyl)imide-N-butyl-N-octadecylpyrrolidinium]", "values": [{"measurement": "Dissolved or not in fluorine-based solvent", "setting": "[1]", "result": "could be dissolved"}, {"measurement": "Solubility to fluorine-based solvent", "setting": "[1]", "result": "0.5% by mass or greater"}, {"measurement": "Solubility to fluorine-based solvent", "setting": "[1]; listed as Example 4A", "result": "≥ 0.5", "unit": "% by mass"}, {"measurement": "Weight reduction temperature 5%", "setting": "[2]", "result": 331.4, "unit": "°C"}, {"measurement": "Weight reduction temperature 10%", "setting": "[2]", "result": 360.2, "unit": "°C"}, {"measurement": "Weight reduction temperature 20%", "setting": "[2]", "result": 382.5, "unit": "°C"}]}
